Experimental data: patent US10723699B2 (Hyundai Pharm Co., Ltd., priority 2015, dated 2020)

What was measured:
[1] = target: T1, CYP2D6 (Homo sapiens, UniProt P10635); assay: CYP inhibition assay (Invitrogen P2862 kit); assay type: in vitro ADME; conditions: 10 µM
T1 construct: purchased Invitrogen P2862
Description: CYP enzymes play a major role in the metabolism of drugs. Depending on the inhibition activity of the CYP enzymes, the dose of the drugs and toxicity due to the co-administration of other drugs can be predicted. Therefore, we have measured the inhibitory activity for CYP3A4, CYP2C9, CYP1A2, CYP2D6 and CYP2C19 enzymes present in the body using the compounds of the present invention. Invitrogen P2862 kit was used for CYP2D6 inhibition assay, and BD GENTEST (459100, 459300, 459400, 459500) kits were used for CYP1A2, CYP2C9, CYP2C19 and CYP3A4 inhibition assay. In case of Invitrogen kit, the test materials were diluted in distilled water into 2.5× of the final test concentration.
P450 BACULOSOMES® reagent and regeneration device (100×) provided by the Invitrogen kit were diluted in the Vivid® reaction buffer (2×) into the appropriate concentration for the type of CYP450. After mixing 80 μl of the 2.5× test material and 100 μl of the mixture of the diluted P450 BACULOSOMES® reagent in U-bottom 96-well plate, the resulting mixture was pre-incubated for 20 minutes. Vivid® CYP450 substrate and NADP+ (100×) were diluted in the Vivid® CYP450 reaction buffer (2×) into the appropriate concentration for the types of CYP450 and the substrates. After completion of the pre-incubation, 20/l of the substrate-NADP (nicotinamide adenine dinucleotide phosphate) mixture was added, and then incubated for 1 hour. After completion of the reaction, the reactants were transferred to the white plates, and fluorescence values were measured using a micro-plate reader (Excitation and absorption wavelengths of CYP2D6 were 400 nm and 502 nm, respectively).
The measured values were converted into the inhibition percent of the test materials as compared to the value of the untreated control, and the results were summarized in Table 5.

[2] = system: diet-induced obesity (DIO) C57BL/6J mice; assay: OGTT in diet-induced obesity (DIO) mice at the end of 4-week administration; assay type: in vivo; conditions: glucose 4 g/kg 30 minutes later
Procedure: To simultaneously evaluate both the weight-loss and hypoglycemic effects of the cyclohexene derivative according to the present invention, experiments were carried out, as follows.
Specifically, male C57BL/6J mice (approximately 4 weeks old) in a diet-induced obesity model were fed with a high-fat diet (Lab. Diet Co.) for approximately 12 weeks to induce high-fat diet-induced obesity (DIO). The mice undergoing the high-fat diet were randomly selected, and divided into groups (n=8) for respective administrations.
The weights of the DIO mice were measured twice a week during a period of administration of 4 weeks to record a change in the weights. At the end of the 4-week period of administration, a hypoglycemic effect was evaluated using an oral glucose tolerance test (OGTT), as follows.
Specifically, the compound (+)-(4-(4-((1-(5-ethylpyrimidin-2-yl)piperidin-4-yl)methoxy)phenyl)cyclohex-3-enyl)((R)-2-(hydroxymethyl)pyrrolidin-1-yl)methanone or (−)-(4-(4-((1-(5-ethylpyrimidin-2-yl)piperidin-4-yl)methoxy)phenyl)cyclohex-3-enyl)((R)-2-(hydroxymethyl)pyrrolidin-1-yl)methanone prepared in Example 290 or 291 was orally administered at a dose of 10 to 20 mg/kg. […] A blood glucose level was determined using an Accu-Chek Active Strip (Roche diagnostic Co.). […]

[3] = system: NCI-H716 cells; assay: Promotion of glucagon-like peptide-1 (GLP-1) secretion (ELISA); assay type: cell-based, human; conditions: 1, 10, 30 μM
Procedure: To evaluate an effect of the cyclohexene derivative according to the present invention on promotion of glucagon-like peptide-1 (GLP-1) secretion, experiments were carried out, as follows.
NCI-H716 cells that were human enterocytes were plated on 12 wells at 1×10^6 cells per well. After 48 hours, the cells were starved in serum-free media for 2 hours, and treated with a varying concentration of siptagliptin that was a dipeptidyl peptidase-IV (DPP-IV) inhibitor, and the compounds of Comparative Example 1 (1, 10, 30 μM), Comparative Example 5 (10 μM), Example 48 (1, 10, 30 μM), and Example 291 (1, 10, 30 μM). After an hour, supernatants are recovered to determine an amount of the secreted GLP-1 peptide. The GLP-1 measurement was performed using an enzyme-linked immunosorbant assay (ELISA; Millipore, EGLP-35K), and the amount of the secreted GLP-1 peptide was indicated by the unit “pM”.

T1 sequence (P10635 whole entry): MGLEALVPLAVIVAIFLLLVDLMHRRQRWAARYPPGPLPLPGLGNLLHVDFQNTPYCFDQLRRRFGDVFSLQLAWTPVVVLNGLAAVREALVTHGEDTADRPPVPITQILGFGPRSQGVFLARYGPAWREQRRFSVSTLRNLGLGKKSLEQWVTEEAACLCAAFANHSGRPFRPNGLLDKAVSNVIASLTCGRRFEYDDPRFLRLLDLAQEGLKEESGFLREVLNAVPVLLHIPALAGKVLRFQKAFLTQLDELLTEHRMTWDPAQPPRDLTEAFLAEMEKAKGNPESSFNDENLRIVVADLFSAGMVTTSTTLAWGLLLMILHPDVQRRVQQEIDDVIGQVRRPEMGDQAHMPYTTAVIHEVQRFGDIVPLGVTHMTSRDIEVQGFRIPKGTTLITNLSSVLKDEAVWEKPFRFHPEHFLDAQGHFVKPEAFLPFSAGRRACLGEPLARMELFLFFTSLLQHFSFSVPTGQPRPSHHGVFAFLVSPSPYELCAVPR

## CCc1cnc(N2CCC(COc3ccc(C4=CCC(C(=O)N5CCC[C@@H]5CO)CC4)cc3)CC2)nc1 (single isomer, unassigned; (-)) [Example 291]
[1]
  CYP inhibition (% at 10 μM) 2D6: 2.49%
[2]; 10 mg/kg oral
  % AUC (hypoglycemic level): 16.2 % AUC
[2]; 20 mg/kg oral
  % AUC (hypoglycemic level): 17.6 % AUC
[3]
  GLP-1 secretion relative to the untreated group: approximately 1.8 times
